This is an account of results in US6142972A, “Method and apparatus for the delivery of elongate solid drug compositions” (Delab, priority 1998, dated 2000).

Data set [1] can be described thus: Pharmacokinetics of SOMATULINE™ filament vs liquid solution in dogs (FIGS. 4A and 4B). The class given is in vivo. The note with it: dog, blood. How it is done: FIGS. 4A and 4B are graphs showing the blood level in a dog of a somatostatin analog, SOMATULINE™ (BIM-23014C, Biomeasure, Milford Mass.) after implantation of a solid filament compared to a liquid solution of BIM-23014C.
The above protocol was performed by mixing 1.500 g of HEC and 8.500 g of water. 0.42250 g of the resulting gel was added to 0.06395 g of BIM 23014. The mixture was extruded through a […] (0.3 mm internal diameter needle), collected, and dried under vacuum for 24 hours. The dried filament contained 0.107 mg of BIM 23014/cm (weight percentage 50% HEC and 50% BIM 23014).
The filaments were tested for pharmacokinetics and compared to liquid infusions of the same dosage of SOMATULINE™ in dogs. The results are shown in the graphs in FIGS. 4A, 4B, and 5. […] However, the blood concentration decreased to less than 0.1 ng/ml within about 2 hours, to less than 0.001 within about 8 hours, and to about 0.0005 ng/ml in less than 12 hours. On the other hand, the blood concentration of SOMATULINE™ provided by the solid drug filament was at an almost constant level over 0.1 ng/ml for the first 10 hours, declined to about 0.002 ng/ml within 24 hours, and declined further to 0.0005 ng/ml by 72 hours.

For data set [2] the following is noted: pure insulin, depending on purity; cited from earlier work.

As to `CC(C)[C@@H]1NC(=O)[C@H](CCCCN)NC(=O)[C@@H](Cc2c[nH]c3ccccc23)NC(=O)[C@H](Cc2ccc(O)cc2)NC(=O)[C@@H](NC(=O)[C@H](N)Cc2ccc3ccccc3c2)CSSC[C@@H](C(=O)N[C@H](C(N)=O)[C@@H](C)O)NC1=O` [SOMATULINE™], the concentration at 10 h in data set [1] (solid drug filament, first 10 hours, read-out: blood concentration of SOMATULINE™ (almost constant level)) was more than 0.1 ng/mL. Also, in data set [1] (solid drug filament, within 24 hours), the concentration at 24 h is approximately 0.002 ng/mL. For the same compound, the C0 in data set [1] (solution formulation, initial, read-out: blood concentration of SOMATULINE™, initial) was approximately 0.5 ng/mL. For the same compound, in data set [1] (solution formulation, within about 2 hours), the concentration at 2 h was less than 0.1 ng/mL. The compound also registered a concentration at 8 h in data set [1] (solution formulation, within about 8 hours) of less than 0.001 ng/mL.

As to “recombinant human insulin: pure insulin, e.g., recombinant human insulin”, the “Insulin Units (IU) per mg” value in data set [2] is 26 to 28 Insulin Units (IU) per mg.
